Where “and” joins values, the source holds several entries; their conditions need not be identical. Equal entries are not always repeated.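 Five compound concentrations were applied to cells in 96-well plates for 48 hours; endpoints were derived by simple linear interpolation of the resulting dose-response curve. GI50 = concentration required for 50% inhibition of growth. At the TGI there is no net growth.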 Where a SMILES comes first, the peptide text is derived from it. Bridges are numbered along the chain shown (N, C = ends). [ ]: non-standard residue; d: D form. aThr = C[C@H](O)[C@H](N)C(=O)O
Columns and labels:
Test in all cases: NCI-60 cell line screen, 48 h
U251 CNS = test system: U251 CNS
OVCAR-3 ovarian = test system: OVCAR-3 ovarian
NCI-H460 lung = test system: NCI-H460 lung
OVCAR-8 ovarian = test system: OVCAR-8 ovarian
MCF7 breast = test system: MCF7 breast
IGROV1 ovarian = test system: IGROV1 ovarian
MALME-3M melanoma = test system: MALME-3M melanoma
SK-MEL-5 melanoma = test system: SK-MEL-5 melanoma
SK-MEL-2 melanoma = test system: SK-MEL-2 melanoma
UACC-257 melanoma = test system: UACC-257 melanoma

Compound	GI50 (U251 CNS)	TGI (U251 CNS)	GI50 (OVCAR-3 ovarian)	TGI (OVCAR-3 ovarian)	GI50 (NCI-H460 lung)	TGI (NCI-H460 lung)	GI50 (OVCAR-8 ovarian)	TGI (OVCAR-8 ovarian)	GI50 (MCF7 breast)	TGI (MCF7 breast)	GI50 (IGROV1 ovarian)	TGI (IGROV1 ovarian)	GI50 (MALME-3M melanoma)	TGI (MALME-3M melanoma)	GI50 (SK-MEL-5 melanoma)	TGI (SK-MEL-5 melanoma)	GI50 (SK-MEL-2 melanoma)	TGI (SK-MEL-2 melanoma)	GI50 (UACC-257 melanoma)	TGI (UACC-257 melanoma)
COc1ccc(/C=C2\CCC/C(=C\c3ccc(OC)c(OC)c3)C2=O)cc1OC	1.4 µM	> 32.5 µM	2.17 µM	> 32.5 µM	1.61 µM	> 32.5 µM	1.16 µM	> 32.5 µM	1.19 µM	> 32.5 µM	1.72 µM	> 32.5 µM	8.51 µM	> 32.5 µM	1.88 µM	> 32.5 µM	5.02 µM	15.2 µM	4.65 µM	> 32.5 µM
CCN(CC)c1ccc2nc3ccc(=[N+](CC)CC)cc-3oc2c1	0.119 µM	> 100 µM	0.0318 µM	0.362 µM	0.108 µM	8.12 µM	0.121 µM		0.029 µM	0.276 µM	0.107 µM	0.862 µM	0.115 µM	0.628 µM	0.162 µM	1.17 µM	1.36 µM	3.99 µM	0.0457 µM	0.654 µM
Cc1noc(NC(=O)Nc2ccccc2F)c1C#N		> 44.6 µM		> 100 µM		> 34.2 µM		> 100 µM		> 35.6 µM		> 100 µM		> 51.9 µM		> 100 µM		> 54.9 µM		> 51 µM
C=CCN(CC=C)C(=O)c1cc(C)nc2c1c(=O)n(-c1ccccc1)c(=O)n2CCCN1CCN(c2ccccc2OC)CC1	> 50 µM	> 50 µM	> 50 µM	> 50 µM	> 50 µM	> 50 µM	> 50 µM	> 50 µM	> 50 µM	> 50 µM	> 50 µM	> 50 µM	> 50 µM	> 50 µM	> 50 µM	> 50 µM	> 50 µM	> 50 µM	> 50 µM	> 50 µM
C=C(CN1CCc2[nH]c3ccc(F)cc3c2C1)c1ccc(C(=O)Nc2ccccc2N)cc1	2.91 µM	11.2 µM	2.08 µM	6.84 µM	3.98 µM	17.2 µM	0.772 µM	3.82 µM	2.45 µM	69.2 µM	0.41 µM	3.53 µM	0.389 µM	3.1 µM	0.502 µM	1.83 µM	1.07 µM	8.14 µM	0.6 µM	2.71 µM
CSc1nc2nc(-c3ccccc3)c(C)c-2c2n1C(C)C(=O)N2 (stereo not drawn)	68.2 µM	> 100 µM	26.8 µM	81.8 µM	32.4 µM	> 100 µM	45.7 µM	> 100 µM	25.8 µM	> 100 µM	41.5 µM	> 100 µM	43.1 µM	> 100 µM	16.9 µM	35.5 µM	30.1 µM	78.1 µM	51.3 µM	> 100 µM
COCCN(Cc1ccc(F)cc1)c1ccc(CO)c(Cl)c1	6.33 µM	> 54.7 µM	3.54 µM	15.4 µM	1.9 µM	> 43.6 µM	29.9 µM	> 100 µM	2.79 µM	> 100 µM	0.559 µM	3.7 µM	> 57.1 µM	> 100 µM	12.2 µM	26.2 µM	20.6 µM	59.5 µM	0.492 µM	2.5 µM
OCCCCC#Cc1ccccc1C#Cc1cccc(C(F)(F)F)c1	17.2 µM	31.6 µM	16.8 µM	31.6 µM	18.4 µM	40.6 µM	18.8 µM	35.7 µM	21.2 µM	42.7 µM	14.4 µM	28.5 µM	26 µM	48.5 µM	17.8 µM	32.7 µM	19.7 µM	42.1 µM	16.7 µM	31.8 µM
O=C(O)CN(CCN(CC(=O)O)CC(=O)O)CC(=O)O.[Mn+2]	> 100 µM	> 100 µM	> 100 µM	> 100 µM	> 100 µM	> 100 µM	> 100 µM	> 100 µM	> 100 µM	> 100 µM	> 100 µM	> 100 µM	> 100 µM	> 100 µM	> 100 µM	> 100 µM	> 100 µM	> 100 µM	> 100 µM	> 100 µM
CN(C)c1ccc(-c2cc(-c3ccc(Nc4nc(Nc5ccc(Cl)cc5)nc(Nc5ccc(Cl)cc5)n4)cc3)nc(N)c2C#N)cc1	10.7 µM	> 100 µM	13.6 µM	92 µM	15.4 µM	> 100 µM	6.38 µM	> 100 µM	2.38 µM	47.7 µM	4.53 µM	> 100 µM	69.4 µM	> 100 µM	4.56 µM	> 100 µM	10.8 µM	86.7 µM	12.3 µM	> 100 µM
OCC1CC[N-]CC1.OCC1CC[N-]CC1.[Cl][Pt+2]([Cl])([Cl])[Cl]	19.6 µM	53 µM	45.9 µM		27.9 µM	95.7 µM	31.1 µM		26.2 µM		25.2 µM		36.4 µM		34.5 µM		27 µM	67.3 µM	31 µM	
COc1cc(OC)c(OC)cc1/C=C/c1nc2ccccc2s1		> 100 µM		> 100 µM		> 100 µM		> 100 µM		> 100 µM		> 100 µM		> 100 µM		> 100 µM		> 100 µM		> 100 µM
CCCCCCCCCCCC[C@@H](O)[C@H]1CC[C@H]([C@H](O)CC[C@H](O)[C@@H]2CC[C@@H](CCCCCCCC3=C[C@H](C)OC3=O)O2)O1	8.63 µM	> 50 µM	2.78 µM	> 50 µM	> 50 µM	> 50 µM	6.6 µM	> 50 µM	1.85 µM	> 50 µM	8.89 µM	> 50 µM		> 50 µM	1.3 µM	7.93 µM and > 50 µM		> 50 µM	0.152 µM	
Cn1c(=O)c2nc3sc4c(n3c2n(C)c1=O)C(=O)c1ccccc1C4=O		> 57.5 µM		> 50.6 µM		> 95.4 µM		> 74.2 µM		> 62 µM		> 69 µM		> 100 µM		> 100 µM		> 75.7 µM		> 100 µM
CCCCCC(=O)O[C@]1(C(C)=O)CCC2C3CCC4=CC(=O)CC[C@]4(C)C3CC[C@@]21C (stereo partly drawn)	1.78 µM	4.15 µM	1.9 µM	3.9 µM	2.31 µM	8.59 µM	2.61 µM	10.7 µM	2.51 µM	8.39 µM	2.7 µM	11.4 µM	2.18 µM	6.05 µM	1.43 µM	2.77 µM	2.87 µM	7.73 µM	3.15 µM	12.6 µM
CCCCS(=O)c1sc2nc(-c3cccs3)cc(-c3ccccc3)c2c1N (stereo not drawn)	18 µM	> 100 µM	14.3 µM	> 100 µM	13 µM	> 96.8 µM	19.9 µM	> 100 µM	10.4 µM	> 100 µM	20.3 µM	> 100 µM	26.1 µM	75.4 µM	13.3 µM	28.3 µM	17.3 µM	47.8 µM	25.1 µM	90.5 µM
O=C(c1cccs1)c1c(C(F)(F)F)n([O-])c2cc(Cl)c(Cl)cc2[n+]1=O	0.269 µM	1.66 µM	0.668 µM	1.82 µM	1.39 µM	4.07 µM	1.46 µM	3.47 µM	0.0762 µM	1.17 µM	0.073 µM	1.07 µM	1.23 µM	2.65 µM	1.28 µM	2.65 µM	2.7 µM	> 100 µM	1.86 µM	3.85 µM
COc1cc2nnc3c4cccnc4[nH]c3c2cc1OC	1.66 µM and 0.918 µM		1.37 µM and 1.15 µM	22.6 µM and 5.5 µM	2.84 µM and 2.46 µM	12.9 µM and 8.63 µM	3.91 µM and 1.25 µM	50 µM and > 100 µM	0.836 µM and 0.34 µM	10.9 µM and 2.82 µM	1.02 µM and 1.73 µM	19.4 µM and 5.83 µM	7.54 µM and 2.28 µM	22.9 µM and 5.68 µM	8.57 µM and 7.33 µM	21.2 µM and 22.2 µM	13.8 µM and 11.3 µM	50 µM and 37.9 µM	9.13 µM and 3.32 µM	50 µM and 27.7 µM
C(=Nc1nc(SCc2ccccc2)nc2[nH]ncc12)c1cccs1	43.6 µM	> 100 µM	> 100 µM	> 100 µM	33.2 µM	> 100 µM	39.6 µM	> 100 µM	40.4 µM	> 100 µM	> 100 µM	> 100 µM	42.9 µM	> 100 µM	2.77 µM	19.8 µM	77.4 µM	> 100 µM	53.7 µM	> 100 µM
CC(C)C[C@@H]1NC(=O)[C@@H]2CCCN2C(=O)[C@@H]2CCCN2C(=O)[C@H](CC(C)C)NC(=O)[C@H](CO)NC(=O)[C@H](CCCCN)NC(=O)[C@H]([C@H](C)O)NC(=O)[C@@H]2CSSC[C@@H](NC1=O)C(=O)N[C@@H](Cc1ccccc1)C(=O)N1CCC[C@H]1C(=O)N[C@@H](CC(=O)O)C(=O)NCC(=O)N[C@@H](CCCN=C(N)N)C(=O)N2 (cyclo(C[aThr]KSLPPL[dC]FPDGR); disulfide 1-9)	> 50 µM	> 50 µM	> 50 µM	> 50 µM	> 50 µM	> 50 µM	> 50 µM	> 50 µM	> 50 µM	> 50 µM	> 46.4 µM	> 50 µM	> 50 µM	> 50 µM	> 50 µM	> 50 µM	> 50 µM	> 50 µM	> 50 µM	> 50 µM
Cc1cc(Br)c(NC(=O)c2c(-c3c(Cl)cccc3Cl)noc2C)c(Br)c1	> 100 µM	> 100 µM	> 100 µM	> 100 µM	> 100 µM	> 100 µM	> 100 µM	> 100 µM	> 100 µM	> 100 µM	> 100 µM	> 100 µM	> 100 µM	> 100 µM	> 100 µM	> 100 µM	> 100 µM	> 100 µM	> 100 µM	> 100 µM
NC(N)=NCCCC(NCc1c2ccccc2nc2ccccc12)C(=O)O (stereo not drawn)		> 100 µM		> 100 µM		> 100 µM		> 86 µM		> 100 µM		> 100 µM		> 100 µM		> 62.2 µM		> 100 µM		> 88.6 µM
